This note sets out measurements from PMC2365111, “Cytotoxicity of Poly(Phenolic)Sulfonates and Their Sodium Salts in L1210 Lymphoid Leukemia Cells” (Metal-Based Drugs, 1998).

SMILES strings stand for the structures.

The assay addresses T1, Ribonucleoside reductase (Mus musculus, UniProt P07742).
T1 construct: preparing the appropriate L1210 cell homogenates or subcellular fractions; endogenous in cells; host or cells: L1210 murine lymphoid leukemia cells, homogenate or subcellular fraction
T1 sequence (P07742 1-792): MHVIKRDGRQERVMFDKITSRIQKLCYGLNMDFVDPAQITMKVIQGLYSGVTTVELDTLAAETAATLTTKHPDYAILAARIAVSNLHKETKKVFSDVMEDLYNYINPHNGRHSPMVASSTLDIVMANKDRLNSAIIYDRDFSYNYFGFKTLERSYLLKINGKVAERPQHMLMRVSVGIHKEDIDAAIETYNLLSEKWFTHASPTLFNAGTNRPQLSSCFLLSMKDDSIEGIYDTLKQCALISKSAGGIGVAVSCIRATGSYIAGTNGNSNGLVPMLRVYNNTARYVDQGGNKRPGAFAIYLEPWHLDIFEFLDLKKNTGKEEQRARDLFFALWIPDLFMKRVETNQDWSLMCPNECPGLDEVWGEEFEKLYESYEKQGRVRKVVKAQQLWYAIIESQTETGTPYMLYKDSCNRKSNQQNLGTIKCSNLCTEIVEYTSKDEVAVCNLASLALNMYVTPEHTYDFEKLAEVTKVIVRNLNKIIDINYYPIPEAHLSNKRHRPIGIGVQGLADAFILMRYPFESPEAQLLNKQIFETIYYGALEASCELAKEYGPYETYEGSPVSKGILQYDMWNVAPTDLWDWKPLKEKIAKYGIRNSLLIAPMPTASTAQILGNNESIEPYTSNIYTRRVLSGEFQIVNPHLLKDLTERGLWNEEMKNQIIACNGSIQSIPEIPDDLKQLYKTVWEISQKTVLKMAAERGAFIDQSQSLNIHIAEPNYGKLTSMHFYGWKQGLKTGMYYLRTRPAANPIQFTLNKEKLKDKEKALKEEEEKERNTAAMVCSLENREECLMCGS
T1 sequence (P11157 1-390 partner): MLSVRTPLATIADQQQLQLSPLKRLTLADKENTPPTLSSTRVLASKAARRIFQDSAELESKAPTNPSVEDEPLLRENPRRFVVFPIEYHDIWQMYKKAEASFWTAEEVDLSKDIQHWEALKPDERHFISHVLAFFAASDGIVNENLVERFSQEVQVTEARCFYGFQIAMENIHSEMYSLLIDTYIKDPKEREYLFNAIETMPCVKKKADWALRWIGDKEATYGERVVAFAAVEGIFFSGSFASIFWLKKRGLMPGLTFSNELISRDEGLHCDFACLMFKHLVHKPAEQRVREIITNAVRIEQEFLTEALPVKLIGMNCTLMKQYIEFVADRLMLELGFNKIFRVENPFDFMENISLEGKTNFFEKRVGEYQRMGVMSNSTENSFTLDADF
As to the kind of experiment: Ribonucleoside reductase activity, L1210. It counts as biochemical. The note with it: 60 min, N=6. An excerpt:
CYTOTOXlCITY OF POLY(PHENOLIC)SULFONATES AND THEIR SODIUM SALTS IN L1210 LYMPHOID LEUKEMIA CELLS Fei Wang, Amy E. Warren, Cheryl R. Barnes and Iris H. Hall* Division of Medicinal Chemistry and Natural Products University of North Carolina Chapel Hill, N.C. […] Because ofthese properties it was surmised that these poly(phenolic)sulfonated compounds may have antineoplastic activity. METHODS Source of Compounds Test compounds were supplied by GeneLabs, Inc. [Redwood City, CA [Table 1]. Radioisotopes were obtained from New England Nuclear [Dupont, Boston, MA]. Substrates and co-factors were purchased om Sigma Chemical Co., [St Louis, MO]. Pentosan sulfate and other antineoplastic standards were obtained from Sigma Chemical Co. Tumor lines were obtained from American Type Culture Collection [Rockville, MD]. 147 Vol. 5, No. 3, 1998 Cytotoxicity ofSodium Poly(Phenolic)Sulfonates in L1210 Lymphoid Leukemia Cells Table 1 Structures of Poly(phenolic)sulfonate Compounds O2R" n Compound R' R" n MW # G1-2041 H OH 8 1489.46 G1-2029 H OH 6 1117.09 G1-2030 H OH 4 744.73 GI-2021 CH3 ONa 8 1777.5 G1-2057 CH3 ONa 4 888.75 GI-2158 CH3 ONa 6 1333.13 GI-2063 OCH3 ONa 8 2001.65 G1-2042 OAc ONa 8 2017.73 Cytotoxicity Poly(phenolic)sulfonates were tested for cytotoxic activity by homogenizing drug in 0.05% Tween 80/H20 to give a mg/ml stock concentration. These solutions were sterilized by passing them through an acrodisc ([…]). The following cell lines were maintained by literature techniques: murine L1210 lymphoid leukemia, P-388 lymphocytic leukemia, rat UMR 106 osteosarcoma, human Tmolt3 acute lymphoblastic T cell leukemia, HUT-8 lymphoma, HeLa-S suspended cervical carcinoma, HeLa solid cervical carcinoma, KB epidermoid nasopharynx, A431 epidermoid carcinoma, colorectal adenocarcinoma SW480, HCT-8 ileocecal adenocarcinoma, lung bronchogenic MB-9812, A549 lung carcinoma, and glioma HS683. Geran et al.'s protocol was used to assess the cytotoxicity of the compounds and standards in each cell line. Cell numbers were determined by the trypan blue exclusion technique. Solid tumor cytotoxicity was determined by Leibovitz et al. 's method utilizing crystal violeeOH and read at 562 nm (Molecular Devices). Values for cytotoxicity were expressed as EDs0 g/ml, i.e. the concentration ofthe compound inhibiting 50% ofcell growth. A value of less than 4 µg/ml was required for significant activity ofgrowth inhibition. Incorporation Studies Incorporation of labeled precursors into 3H-DNA, 3H -RNA and 3H -protein for 10 L1210 cells was obtained. The concentration response for inhibition of DNA, RNA and protein synthesis of the compounds at 25, 50 and 100 l.tM was determined for 60 min incubations. Incorporation of 14C -glycine (53.0 mCi/mmol) into purines was obtained by the method of Cadman et al.[12]. Incorporation of 4C- formate (53.0 mCi/mmol) into pyrimidines was determined by the method of Christopherson et al.[13]. Enzyme Assays Inhibition of various enzyme activities was performed by first preparing the appropriate L1210 cell homogenates or subcellular fractions, then adding the drug to be tested during the enzyme assay. For the concentration response studies, inhibition of enzyme activity was determined at 25, 50 and 100 l.tM of compounds G1-2021, G1-2029, GI-2041 and G1-2063 after 60 min incubations. DNA polymerase Ot activity was determined in cytoplasmic extracts isolated by Eichler et aL's method. The DNA polymerase assay was described by Sedwick et al.[15] using 3H-TTP. Messenger-, ribosomal- and transfer-RNA polymerase enzymes were isolated with different concentrations of ammonium sulfate; individual RNA polymerase activities were determined using 3H -UTP 16,17]. Ribonucleoside reductase activity was measured using 4C -CDP with dithioerythritol. The deoxyribonucleotides 4C -dCDP were separated from the ribonucleotides by TLC on PEI plates. […]

In the case of `O=S(=O)(O)c1cc2c(O)c(c1)Cc1cc(S(=O)(=O)O)cc(c1O)Cc1cc(S(=O)(=O)O)cc(c1O)Cc1cc(S(=O)(=O)O)cc(c1O)Cc1cc(S(=O)(=O)O)cc(c1O)Cc1cc(S(=O)(=O)O)cc(c1O)C2` [GI-2029], the Ribonucleoside reductase (25 μM) is on record as 130+5% of Control, the Ribonucleoside reductase (50 μM) is reported as 130+6% of Control and the Ribonucleoside reductase (100 μM) is on record as 141+5% of Control.

For `COc1c2cc(S(=O)(=O)[O-])cc1Cc1cc(S(=O)(=O)[O-])cc(c1OC)Cc1cc(S(=O)(=O)[O-])cc(c1OC)Cc1cc(S(=O)(=O)[O-])cc(c1OC)Cc1cc(S(=O)(=O)[O-])cc(c1OC)Cc1cc(S(=O)(=O)[O-])cc(c1OC)Cc1cc(S(=O)(=O)[O-])cc(c1OC)Cc1cc(S(=O)(=O)[O-])cc(c1OC)C2.[Na+].[Na+].[Na+].[Na+].[Na+].[Na+].[Na+].[Na+]` [GI-2021], the Ribonucleoside reductase is, setting by setting: (25 μM) 158+6% of Control; (50 μM) 124+5% of Control; (100 μM) 91+5% of Control.

`O=S(=O)(O)c1cc2c(O)c(c1)Cc1cc(S(=O)(=O)O)cc(c1O)Cc1cc(S(=O)(=O)O)cc(c1O)Cc1cc(S(=O)(=O)O)cc(c1O)Cc1cc(S(=O)(=O)O)cc(c1O)Cc1cc(S(=O)(=O)O)cc(c1O)Cc1cc(S(=O)(=O)O)cc(c1O)Cc1cc(S(=O)(=O)O)cc(c1O)C2` [GI-2041]: the Ribonucleoside reductase (25 μM) is given as 127+5% of Control and the Ribonucleoside reductase (50 μM) is given as 127+6% of Control.
